# Target: T1, Human immunodeficiency virus type 1 protease (Human immunodeficiency virus 1, UniProt Q72874)
# Experiment: Compound was tested for the inhibitory activity against HIV-protease
row,Structure (SMILES),Ki
1,O=C1N(Cc2cccc(CO)c2)[C@H](Cc2ccccc2)[C@@H](Cc2ccccc2)N1Cc1cccc(CO)c1,15500 nM

# Target: T1, Human immunodeficiency virus type 1 protease
# Experiment: Inhibition of HIV-protease
row,Structure (SMILES),Ki
1,O=C1N(CC2CC2)[C@H]([C@@H](F)Cc2ccccc2)[C@@H]([C@@H](F)Cc2ccccc2)N1CC1CC1,980 nM
2,O=C1N(Cc2cccc(CO)c2)[C@H](CCc2ccccc2)[C@@H](CCc2ccccc2)N1Cc1cccc(CO)c1,55 nM
3,O=C1N(Cc2cccc(CO)c2)[C@H](Cc2ccccc2)CC[C@@H](Cc2ccccc2)N1Cc1cccc(CO)c1,170 nM
4,O=C1N(Cc2cccc(O)c2)[C@H]([C@@H](F)Cc2ccccc2)[C@@H]([C@@H](F)Cc2ccccc2)N1Cc1cccc(O)c1,560 nM
5,O=C1N(Cc2ccc3ccccc3c2)[C@H]([C@@H](F)Cc2ccccc2)[C@@H]([C@@H](F)Cc2ccccc2)N1Cc1ccc2ccccc2c1,1400 nM
6,O=C1N(Cc2cccc(CO)c2)[C@H](CCc2ccccc2)C[C@@H](Cc2ccccc2)N1Cc1cccc(CO)c1,99 nM
7,O=C(Oc1cccc(CN2C(=O)N(Cc3cccc(OC(=O)c4ccccc4)c3)[C@H]([C@@H](F)Cc3ccccc3)[C@H]2[C@@H](F)Cc2ccccc2)c1)c1ccccc1,425 nM
8,COC(=O)c1cccc(CN2C(=O)N(Cc3cccc(C(=O)OC)c3)[C@H](CCc3ccccc3)[C@H]2[C@@H](Br)Cc2ccccc2)c1,920 nM
9,N=C(NO)c1cccc(CN2C(=O)N(Cc3cccc(C(=N)NO)c3)[C@H](CCc3ccccc3)[C@H]2CCc2ccccc2)c1,17 nM
10,COC(=O)c1cccc(CN2C(=O)N(Cc3cccc(C(=O)OC)c3)[C@H](CCc3ccccc3)[C@H]2CCc2ccccc2)c1,470 nM
11,O=C1N(Cc2cccc(CO)c2)[C@H]([C@@H](O)Cc2ccccc2)[C@@H](CCc2ccccc2)N1Cc1cccc(CO)c1,23 nM
12,COC(=O)c1cccc(CN2C(=O)N(Cc3cccc(C(=O)OC)c3)[C@H](CCc3ccccc3)[C@H]2[C@@H](O)Cc2ccccc2)c1,100 nM
13,C=CCN1C(=O)N(CC=C)[C@H]([C@@H](F)Cc2ccccc2)[C@H]1[C@@H](F)Cc1ccccc1,2500 nM

# Source: ChEMBL document CHEMBL1129848, “Synthesis and evaluation of imidazolidinones as nonpeptide HIV-protease inhibitors” (Bioorg Med Chem Lett, 1997)
